From US20230392123A1, “[…]-ASSEMBLED PEPTIDE HYDROGELS […]” (KATHOLIEKE UNIVERSITEIT LEUVEN, priority 2020, published 2023) come the findings set out here.

Entries after “also recorded” stand apart in the source; their conditions may differ.

The subject of the data set is HepG2 cells. As to the kind of experiment: Live/dead staining of HepG2 hydrogel spheroids in 384 well plate, high-content imaging. The following applies: 0.1% Triton X for 15 minutes, after 19 days of culture, toxic control. The format is cell-based. The protocol: High-throughput assays: HepG2 cells were cultured in 2D in DMEM (Invitrogen Cat #31885)+10% fetal bovine serum (FBS). Cells were detached at passage 12 by 0.05% trypsin and mixed (1×10^7 cells/ml) with Puramatrix™+10% Bovine Collagen I (Gibco, Ref: A10644-01, Auckland, NZ) and 1 ul of the mix was pipetted in each well of a 384 well plate (Greiner microplate, Ref: 787979) to form the HepG2 hydrogel spheroids (one hydrogel spheroid per well). Hydrogel spheroids were maintained in HepG2 medium and the medium change was handled automatically by a robotic platform (NextGenQBio) for 19 days. Live/dead staining (Invitrogen, Ref:3224) was performed on the cell in the spheroids according the manufacturer's instruction. Prior to live/dead staining, a group of the hydrogel spheroids were treated with 0.1% Triton X for 15 minutes as control. Nuclei was stained by Hoechst (1:1000 dilution) for 15 minutes. The plate was imaged by a high-content analysis system (Operetta, PerkinElmer®). […] This experiment highlights the potential of hydrogel spheroids to be used in a high-throughput set up specifically important for drug/compound screening and toxicity studies.

For Triton X, the “live (green)/dead (red) staining of HepG2 cells in hydrogel spheroids” value is “minimal or no green colour; also recorded: cell death”.
